Reference: patent US20080009418A1, “Selective Inhibitors” (Alchemia LTD., priority 2004, published 2008)

How the values were obtained:
Settings in all cases: compound at 10 μM
[1] = target: T1, Human μ-opioid (MOP) (Homo sapiens, UniProt P35372); test: Radioligand binding, human μ-opioid (MOP) membranes, FlashPlate, [3H]-Naloxone
T1 construct: purchased Perkin Elmer Biosignal
Procedure, shortened: (§1)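 Cloned human receptor membranes were coated onto FlashPlate wells and incubated with radioligand and compound (added from a 0.5 mM DMSO daughter plate) for 1 hour at room temperature in the dark. Scintillation counting gave percent inhibition, with DMSO defining total and reference ligand defining non-specific binding.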

[2] = target: T2, Human melanin-concentrating hormone (MCH1) (Homo sapiens, UniProt Q99705); test: Radioligand binding, human melanin-concentrating hormone MCH1 membranes, FlashPlate, [125I]-S36057
T2 construct: purchased Perkin Elmer Biosignal
T2 sequence (Q99705 whole entry): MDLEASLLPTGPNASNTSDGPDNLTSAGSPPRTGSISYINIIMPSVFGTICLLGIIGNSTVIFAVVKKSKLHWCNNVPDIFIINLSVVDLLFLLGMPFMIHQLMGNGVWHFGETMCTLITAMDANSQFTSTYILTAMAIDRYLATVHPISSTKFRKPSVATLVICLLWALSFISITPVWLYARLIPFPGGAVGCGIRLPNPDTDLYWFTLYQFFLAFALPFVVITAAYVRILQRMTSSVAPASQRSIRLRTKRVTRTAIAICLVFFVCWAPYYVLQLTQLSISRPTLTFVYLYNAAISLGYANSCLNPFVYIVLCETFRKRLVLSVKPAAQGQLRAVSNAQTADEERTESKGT
Procedure, shortened: as §1

[3] = target: T3, Human Melanocortin (MC3) (Homo sapiens, UniProt P41968); test: Radioligand binding, human melanocortin MC3 membranes, FlashPlate, [125I]-NDP-αMSH
T3 construct: purchased Perkin Elmer Biosignal
T3 sequence (P41968 whole entry): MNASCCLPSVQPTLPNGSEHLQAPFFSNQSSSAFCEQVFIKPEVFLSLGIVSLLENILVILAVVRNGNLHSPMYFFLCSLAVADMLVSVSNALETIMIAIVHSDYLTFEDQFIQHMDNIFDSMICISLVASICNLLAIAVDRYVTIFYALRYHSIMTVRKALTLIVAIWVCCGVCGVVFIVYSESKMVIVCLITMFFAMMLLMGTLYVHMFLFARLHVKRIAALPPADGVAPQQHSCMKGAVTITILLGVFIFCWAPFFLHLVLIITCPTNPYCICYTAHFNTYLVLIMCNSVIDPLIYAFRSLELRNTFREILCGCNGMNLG
Procedure, shortened: as §1

[4] = target: T4, Human neurokinin (NK1) (Homo sapiens, UniProt P25103); test: Radioligand binding, human neurokinin NK1 membranes, filtration, [125I]-Substance P
T4 construct: purchased Perkin Elmer Biosignal
T4 sequence (P25103 whole entry): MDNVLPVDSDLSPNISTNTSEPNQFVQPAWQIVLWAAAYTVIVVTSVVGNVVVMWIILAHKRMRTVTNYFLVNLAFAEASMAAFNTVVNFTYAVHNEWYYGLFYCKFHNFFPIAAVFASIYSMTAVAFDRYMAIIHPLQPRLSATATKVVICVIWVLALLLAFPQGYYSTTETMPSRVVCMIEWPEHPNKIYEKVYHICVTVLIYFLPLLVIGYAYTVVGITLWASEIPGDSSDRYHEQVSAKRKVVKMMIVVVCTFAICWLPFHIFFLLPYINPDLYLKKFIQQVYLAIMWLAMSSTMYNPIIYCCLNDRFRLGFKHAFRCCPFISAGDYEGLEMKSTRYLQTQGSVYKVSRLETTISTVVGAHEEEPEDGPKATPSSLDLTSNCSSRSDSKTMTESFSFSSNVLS
Procedure, shortened: (§2)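 Filtration binding on cloned human receptor membranes (1 Unit/well), [125I]-Substance P for NK1 and [3H]-Diprenorphine for KOP, 1 h at room temperature. Filters PEI-presoaked, washed with cold 50 mM Tris-HCl pH 7.4, counted by scintillation; percent inhibition calculated, reference ligand defining non-specific binding.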

[5] = target: T5, Human δ-opioid (DOP) (Homo sapiens, UniProt P41143); test: Radioligand binding, human δ-opioid (DOP) membranes, FlashPlate, [3H]-Bremazocine
T5 construct: purchased Perkin Elmer Biosignal
T5 sequence (P41143 whole entry): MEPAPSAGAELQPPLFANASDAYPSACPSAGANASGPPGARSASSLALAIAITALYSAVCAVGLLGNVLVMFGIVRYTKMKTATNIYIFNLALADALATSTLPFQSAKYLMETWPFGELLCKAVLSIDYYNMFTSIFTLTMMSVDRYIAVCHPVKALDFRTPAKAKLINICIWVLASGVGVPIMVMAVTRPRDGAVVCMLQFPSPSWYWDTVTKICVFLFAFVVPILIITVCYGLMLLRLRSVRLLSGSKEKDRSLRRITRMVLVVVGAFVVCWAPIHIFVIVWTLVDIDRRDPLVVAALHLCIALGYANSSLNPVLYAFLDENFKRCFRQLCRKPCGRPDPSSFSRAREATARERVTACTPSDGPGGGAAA
Procedure, shortened: as §1

[6] = target: T6, Human opioid (ORL1) (Homo sapiens, UniProt P41146); test: Radioligand binding, human opioid ORL1 membranes, FlashPlate, [125I]-Nociceptin
T6 construct: purchased Perkin Elmer Biosignal
T6 sequence (P41146 whole entry): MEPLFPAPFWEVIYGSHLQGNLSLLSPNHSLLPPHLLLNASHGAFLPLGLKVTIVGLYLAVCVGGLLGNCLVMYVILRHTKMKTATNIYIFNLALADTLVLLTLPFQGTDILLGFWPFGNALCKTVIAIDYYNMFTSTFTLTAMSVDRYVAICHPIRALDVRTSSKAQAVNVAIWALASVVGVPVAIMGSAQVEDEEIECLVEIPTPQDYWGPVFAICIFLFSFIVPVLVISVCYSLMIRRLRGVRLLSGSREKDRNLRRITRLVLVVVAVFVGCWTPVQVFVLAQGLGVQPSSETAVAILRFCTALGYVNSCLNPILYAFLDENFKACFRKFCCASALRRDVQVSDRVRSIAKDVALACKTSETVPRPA
Procedure, shortened: as §1

[7] = target: T7, Human κ-Opioid (KOP) (Homo sapiens, UniProt P41145); test: Radioligand binding, human κ-opioid (KOP) membranes, filtration, [3H]-Diprenorphine
T7 construct: purchased Perkin Elmer Biosignal
T7 sequence (P41145 whole entry): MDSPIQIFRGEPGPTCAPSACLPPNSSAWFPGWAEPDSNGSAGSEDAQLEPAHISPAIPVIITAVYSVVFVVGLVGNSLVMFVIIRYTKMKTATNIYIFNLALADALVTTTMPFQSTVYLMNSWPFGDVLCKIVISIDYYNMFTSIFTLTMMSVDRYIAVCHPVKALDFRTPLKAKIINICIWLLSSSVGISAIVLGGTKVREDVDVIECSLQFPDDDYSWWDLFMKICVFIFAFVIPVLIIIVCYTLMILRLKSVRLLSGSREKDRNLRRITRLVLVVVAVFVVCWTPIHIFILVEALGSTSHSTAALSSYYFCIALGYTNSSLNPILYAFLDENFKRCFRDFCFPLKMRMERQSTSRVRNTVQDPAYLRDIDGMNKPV
Procedure, shortened: as §2

[8] = target: T8, Human neuropeptide Y (NPY-Y1) (Homo sapiens, UniProt P25929); test: Radioligand binding, human neuropeptide Y NPY-Y1 membranes, FlashPlate, [125I]-PYY
T8 construct: purchased Perkin Elmer Biosignal
T8 sequence (P25929 1-384): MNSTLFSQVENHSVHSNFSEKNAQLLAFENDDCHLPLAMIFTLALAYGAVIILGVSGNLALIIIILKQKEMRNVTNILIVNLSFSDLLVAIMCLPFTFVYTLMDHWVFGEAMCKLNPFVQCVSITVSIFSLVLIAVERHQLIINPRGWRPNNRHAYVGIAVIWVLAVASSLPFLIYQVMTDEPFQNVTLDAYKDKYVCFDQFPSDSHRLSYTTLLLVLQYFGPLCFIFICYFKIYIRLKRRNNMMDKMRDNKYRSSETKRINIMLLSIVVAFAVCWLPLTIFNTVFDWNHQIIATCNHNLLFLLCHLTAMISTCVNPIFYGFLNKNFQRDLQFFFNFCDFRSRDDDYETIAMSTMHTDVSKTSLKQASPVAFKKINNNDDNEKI
Procedure, shortened: as §1

[9] = target: T9, Human Melanocortin (MC4) (Homo sapiens, UniProt P32245); test: Radioligand binding, human melanocortin MC4 membranes, FlashPlate, [125I]-NDP-αMSH
T9 construct: purchased Perkin Elmer Biosignal
T9 sequence (P32245 whole entry): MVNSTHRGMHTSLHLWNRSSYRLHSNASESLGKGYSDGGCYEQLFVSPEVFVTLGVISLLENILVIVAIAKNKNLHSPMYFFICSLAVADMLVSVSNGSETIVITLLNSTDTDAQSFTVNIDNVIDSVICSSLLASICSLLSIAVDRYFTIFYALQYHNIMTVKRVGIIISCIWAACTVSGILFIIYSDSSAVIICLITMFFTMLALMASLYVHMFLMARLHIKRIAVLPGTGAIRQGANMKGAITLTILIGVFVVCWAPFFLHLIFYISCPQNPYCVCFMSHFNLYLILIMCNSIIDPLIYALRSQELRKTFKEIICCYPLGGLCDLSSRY
Procedure, shortened: as §1

[10] = target: T10, Human melanocortin (MC5) (Homo sapiens, UniProt P33032); test: Radioligand binding, human melanocortin MC5 membranes, FlashPlate, [125I]-NDP-αMSH
T10 construct: purchased Perkin Elmer Biosignal
T10 sequence (P33032 whole entry): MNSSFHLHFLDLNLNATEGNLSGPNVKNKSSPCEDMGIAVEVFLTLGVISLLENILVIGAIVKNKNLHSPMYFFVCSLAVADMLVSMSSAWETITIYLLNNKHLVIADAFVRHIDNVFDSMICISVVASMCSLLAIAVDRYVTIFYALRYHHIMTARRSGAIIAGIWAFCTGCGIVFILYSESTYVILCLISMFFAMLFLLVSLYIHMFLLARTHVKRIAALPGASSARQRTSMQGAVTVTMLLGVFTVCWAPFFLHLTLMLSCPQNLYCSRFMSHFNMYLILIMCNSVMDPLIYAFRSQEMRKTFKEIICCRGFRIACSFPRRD
Procedure, shortened: as §1

[11] = target: T11, Mouse urotensin (mUR2) (Mus musculus, UniProt Q8VIH9); test: Radioligand binding, mouse urotensin mUR2 membranes, FlashPlate, [125I]-Urotensin II
T11 construct: purchased Perkin Elmer Biosignal
T11 sequence (Q8VIH9 1-385): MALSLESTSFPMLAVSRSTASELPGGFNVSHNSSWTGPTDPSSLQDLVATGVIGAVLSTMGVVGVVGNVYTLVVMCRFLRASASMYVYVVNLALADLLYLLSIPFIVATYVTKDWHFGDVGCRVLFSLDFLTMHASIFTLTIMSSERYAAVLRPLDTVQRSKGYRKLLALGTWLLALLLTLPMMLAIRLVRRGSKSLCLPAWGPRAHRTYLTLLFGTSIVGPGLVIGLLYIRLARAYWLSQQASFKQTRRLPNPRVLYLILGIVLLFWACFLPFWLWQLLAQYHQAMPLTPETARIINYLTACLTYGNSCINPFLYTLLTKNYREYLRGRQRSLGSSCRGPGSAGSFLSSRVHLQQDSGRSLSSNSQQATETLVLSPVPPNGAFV
Procedure, shortened: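 Cloned mouse urotensin (mUR2) receptor membranes from Perkin Elmer Biosignal were immobilized in FlashPlate microplates using a proprietary coating. Each well got 19.5 μl buffer, then 0.5 μl of DMSO, reference ligand, or compound. Adding 5 μl of [125I]-Urotensin II, diluted to 5× final concentration in binding buffer, started binding. Plates were sealed with TopSeal-A and incubated 1 hour at room temperature in the dark. Wells were counted for 30 seconds each on a TopCount after a 60-second delay, and percentage inhibition was calculated.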

T1 sequence (P35372 whole entry): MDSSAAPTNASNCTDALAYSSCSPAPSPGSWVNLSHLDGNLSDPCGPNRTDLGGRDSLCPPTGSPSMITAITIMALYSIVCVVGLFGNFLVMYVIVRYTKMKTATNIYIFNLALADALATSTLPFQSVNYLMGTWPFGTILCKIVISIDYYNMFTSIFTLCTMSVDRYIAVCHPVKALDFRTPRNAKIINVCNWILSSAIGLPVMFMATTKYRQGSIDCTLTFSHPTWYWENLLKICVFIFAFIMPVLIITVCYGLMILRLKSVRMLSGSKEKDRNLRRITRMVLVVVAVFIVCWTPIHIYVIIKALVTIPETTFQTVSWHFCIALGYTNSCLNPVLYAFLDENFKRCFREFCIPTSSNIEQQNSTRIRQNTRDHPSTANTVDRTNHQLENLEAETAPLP

How did the “A7: inhibition of radioligand binding” value ([1]; [3H]-Naloxone, human MOP membranes, 10 µM) turn out when `NCCCC(=O)NC1C(OCc2ccc3ccccc3c2)OC(COCc2ccc3ccccc3c2)C(O)C1OCc1ccc(Cl)cc1` (single isomer, unassigned) [compound 454] was run?
The value was “+ (“+” indicates greater than 50% inhibition at 10 μM)”.

What about the “A6: inhibition of radioligand binding” value ([2]; [125I]-S36057, human MCH1 membranes) of the same molecule?
Its value is “+ (“+” indicates greater than 50% inhibition at 10 μM)”.

What about the “A3: inhibition of radioligand binding” value ([3]; [125I]-NDP-αMSH, human MC3 membranes) of the same molecule?
Its value is “+ (“+” indicates greater than 50% inhibition at 10 μM)”.

And the “A8: inhibition of radioligand binding” value ([4]; [125I]-Substance P, human NK1 membranes)?
The value was “+ (“+” indicates greater than 50% inhibition at 10 μM)”.

What about the “A1: inhibition of radioligand binding” value ([5]; [3H]-Bremazocine, human DOP membranes) of the same molecule?
Its value is “− (“−” indicates less than 50% inhibition at 10 μM)”.

What about the “A10: inhibition of radioligand binding” value ([6]; [125I]-Nociceptin, human ORL1 membranes, 10 µM) of the same molecule?
Its value is “+ (“+” indicates greater than 50% inhibition at 10 μM)”.

And the “A2: inhibition of radioligand binding” value ([7]; [3H]-Diprenorphine, human KOP membranes, 10 µM)?
Its value is “− (“−” indicates less than 50% inhibition at 10 μM)”.

And the “A9: inhibition of radioligand binding” value ([8]; [125I]-PYY, human NPY-Y1 membranes)?
Its value is “− (“−” indicates less than 50% inhibition at 10 μM)”.

What about the “A4: inhibition of radioligand binding” value ([9]; [125I]-NDP-αMSH, human MC4 membranes) of the same molecule?
Its value is “+ (“+” indicates greater than 50% inhibition at 10 μM)”.

And the “A5: inhibition of radioligand binding” value ([10]; [125I]-NDP-αMSH, human MC5 membranes)?
Its value is “+ (“+” indicates greater than 50% inhibition at 10 μM)”.

What about the “A11: inhibition of radioligand binding” value ([11]; [125I]-Urotensin II, mouse mUR2 membranes) of the same molecule?
The value was “− (“−” indicates less than 50% inhibition at 10 μM)”.

With `COC[C@H]1OC(OCc2ccc(-c3ccccc3)cc2)[C@H](NC(=O)CCCN)[C@@H](OCc2ccc(-c3ccccc3)cc2)[C@@H]1O` (stereo partly drawn) [compound 2] as the molecule, how does the “A7 radioligand binding inhibition” value ([1]; human μ-opioid (MOP) membranes) read?
Its value is “− (“−” indicates less than 50% inhibition at 10 μM)”.

And the “A6 radioligand binding inhibition” value ([2]; human MCH1 membranes)?
Its value is “+ (“+” indicates greater than 50% inhibition at 10 μM)”.

And the “A3 radioligand binding inhibition” value ([3]; human melanocortin MC3 membranes)?
The value was “− (“−” indicates less than 50% inhibition at 10 μM)”.

What about the “A8 radioligand binding inhibition” value ([4]; human neurokinin NK1 membranes) of the same molecule?
The value was “+ (“+” indicates greater than 50% inhibition at 10 μM)”.

What about the “A1 radioligand binding inhibition” value ([5]; human δ-opioid (DOP) membranes) of the same molecule?
The value was “− (“−” indicates less than 50% inhibition at 10 μM)”.

And the “A10 radioligand binding inhibition” value ([6]; human ORL1 membranes)?
Its value is “− (“−” indicates less than 50% inhibition at 10 μM)”.

And the “A2 radioligand binding inhibition” value ([7]; human κ-opioid (KOP) membranes)?
Its value is “− (“−” indicates less than 50% inhibition at 10 μM)”.

And the “A9 radioligand binding inhibition” value ([8]; human NPY-Y1 membranes)?
Its value is “− (“−” indicates less than 50% inhibition at 10 μM)”.

And the “A4 radioligand binding inhibition” value ([9]; human melanocortin MC4 membranes)?
Its value is “+ (“+” indicates greater than 50% inhibition at 10 μM)”.

And the “A5 radioligand binding inhibition” value ([10]; human melanocortin MC5 membranes)?
Its value is “+ (“+” indicates greater than 50% inhibition at 10 μM)”.

And the “A11 radioligand binding inhibition” value ([11]; mouse urotensin mUR2 membranes)?
Its value is “− (“−” indicates less than 50% inhibition at 10 μM)”.

Which “A7: inhibition of radioligand binding, human μ-opioid (MOP)” value ([1]; [3H]-Naloxone) does the source give for `NCC(=O)NC1O[C@H](CO)[C@@H](O)[C@H](OCc2ccccc2)[C@H]1NC(=O)c1ccccc1` (stereo partly drawn) [compound 360] here?
The value was “− (“−” indicates less than 50% inhibition at 10 μM)”.

What about the “A6: inhibition of radioligand binding, human melanin-concentrating hormone (MCH1)” value ([2]; [125I]-S36057) of the same molecule?
The value was “− (“−” indicates less than 50% inhibition at 10 μM)”.

What about the “A3: inhibition of radioligand binding, human melanocortin (MC3)” value ([3]; [125I]-NDP-αMSH) of the same molecule?
Its value is “− (“−” indicates less than 50% inhibition at 10 μM)”.

And the “A8: inhibition of radioligand binding, human neurokinin (NK1)” value ([4]; [125I]-Substance P)?
The value was “− (“−” indicates less than 50% inhibition at 10 μM)”.

What about the “A1: inhibition of radioligand binding, human δ-opioid (DOP)” value ([5]; [3H]-Bremazocine) of the same molecule?
The value was “− (“−” indicates less than 50% inhibition at 10 μM)”.

And the “A10: inhibition of radioligand binding, human opioid (ORL1)” value ([6]; [125I]-Nociceptin)?
The value was “− (“−” indicates less than 50% inhibition at 10 μM)”.

And the “A2: inhibition of radioligand binding, human κ-opioid (KOP)” value ([7]; [3H]-Diprenorphine)?
The value was “− (“−” indicates less than 50% inhibition at 10 μM)”.

What about the “A9: inhibition of radioligand binding, human neuropeptide Y (NPY-Y1)” value ([8]; [125I]-PYY) of the same molecule?
The value was “− (“−” indicates less than 50% inhibition at 10 μM)”.

What about the “A4: inhibition of radioligand binding, human melanocortin (MC4)” value ([9]; [125I]-NDP-αMSH) of the same molecule?
Its value is “+ (“+” indicates greater than 50% inhibition at 10 μM)”.

And the “A5: inhibition of radioligand binding, human melanocortin (MC5)” value ([10]; [125I]-NDP-αMSH)?
The value was “− (“−” indicates less than 50% inhibition at 10 μM)”.

What about the “A11: inhibition of radioligand binding, mouse urotensin (mUR2)” value ([11]; [125I]-Urotensin II) of the same molecule?
The value was “− (“−” indicates less than 50% inhibition at 10 μM)”.
